ChEMBL document CHEMBL1938327, “Thiazolides as novel antiviral agents. 2. Inhibition of hepatitis C virus replication” (J Med Chem, 2011)

Assays:
Canis familiaris [1] = assay: Drug metabolism in dog assessed as deactyl derivative formation at 1 mg/kg, iv after 1 hr; type: ADME, organism-based, Canis lupus familiaris; design: dose 1 mg/kg, route intravenous; settings: in vivo
[2] = Cytotoxicity against human Huh7.5 cells after 3 days by neutral red dye assay; type: cell-based, Huh-7
[3] = Cytotoxicity against human Ava5 cells after 3 days by neutral red dye assay; type: cell-based
Hepatitis C virus [4] = assay: Antiviral activity against HCV genotype 1b infected in Ava5 cells assessed as inhibition of viral replication after 3 days by blot hybridization analysis; type: functional, organism-based, Hepacivirus hominis; settings: Ava5, 72 h
Canis familiaris [5] = assay: Drug metabolism in dog assessed as glucurono-conjugate formation at 1 mg/kg, iv after 2 hrs; type: ADME, organism-based, Canis lupus familiaris; design: dose 1 mg/kg, route intravenous; settings: in vivo
Hepatitis C virus [6] = assay: Antiviral activity against HCV genotype 1a infected in Huh7.5 cells assessed as inhibition of viral replication after 3 days by blot hybridization analysis; type: functional, organism-based, Hepacivirus hominis; settings: subtype 1a, Huh7.5, 72 h
[7] = Aqueous solubility of the compound; type: physicochemical; settings: buffer
[8] = Selectivity index, ratio of CC50 for human Huh7.5 cells to EC50 for HCV genotype 1a infected in human Huh7.5 cells; design: species or system Huh-7
[9] = Selectivity index, ratio of CC50 for human Ava5 cells to EC50 for HCV genotype 1b infected in human Ava5 cells
[10] = Toxicity in po dosed dog; type: organism-based, Canis lupus familiaris; settings: in vivo
Rattus norvegicus = organism: Rattus norvegicus; assay: Toxicity in rat; type: organism-based; settings: in vivo

SMILES | Drug metabolism (Canis familiaris [1]) | CC50 at 72 h [2] [µM] | CC50 at 72 h [3] [µM] | EC50 (Hepatitis C virus [4]) [µM] | EC90 (Hepatitis C virus [4]) [µM] | Drug metabolism (Canis familiaris [5]) | EC50 (Hepatitis C virus [6]) [µM] | EC90 (Hepatitis C virus [6]) [µM] | solubility [7] | Ratio CC50/EC50 [8] | Ratio CC50/EC50 [9] | MTD [10] [mg/kg] | Activity (Rattus norvegicus)
Cc1ccc(O)c(C(=O)Nc2ncc(Cl)s2)c1 | Active | 16 | 2.3 | > 10 | > 10 | Active | 10 | 10 |  |  |  |  | 
CC(=O)Oc1ccccc1C(=O)Nc1nc(C(F)(F)F)cs1 |  |  | 2.8 | > 10 | > 10 |  |  |  | soluble |  |  |  | 
CC(=O)Oc1ccccc1C(=O)Nc1ncc(Cl)s1 |  | 5.7 | 4.3 | 0.23 | 1.1 |  | 0.4 | 1.9 |  | 14 | 16 |  | 
CC(=O)Oc1ccc(C)cc1C(=O)Nc1ncc(Br)s1 |  | 11 | 10 | 3 | 7.8 |  | 3 | 8.6 |  | 3.7 | 3.3 |  | 
CCOC(=O)c1cnc(NC(=O)c2ccccc2O)s1 |  |  | 14 | > 10 | > 10 |  |  |  |  |  |  |  | 
O=C(Nc1ncc(Br)s1)c1ccccc1O |  | 88 | 20 | 4.9 | 10 |  | 2.8 | 9.4 |  | 31.4 | 20 |  | 
Cc1cnc(NC(=O)c2ccccc2O)s1 |  |  | 45 | 4.2 | 14 |  |  |  |  |  | 11 |  | 
O=C(Nc1ncc(Br)s1)c1cccc(Cl)c1O |  | 11 | 10 | > 5.2 | > 10 |  | > 10 | > 10 |  |  | 2.7 |  | 
CC(=O)Oc1ccccc1C(=O)Nc1ncc([N+](=O)[O-])s1 [NITAZOXANIDE] |  | 49 | 35 | 0.21 | 0.93 |  | 0.33 | 1.1 |  | 149 | 143 |  | 
O=C(Nc1ncc([N+](=O)[O-])s1)c1ccccc1O [TIZOXANIDE] |  | 14 | 15 | 0.15 | 0.81 |  | 0.25 | 1 |  | 56 | 100 |  | 
COC(=O)c1ccc(NC(=O)c2ccccc2OC(C)=O)cc1 |  |  | 4.4 | 0.06 | 0.46 |  |  |  |  |  | 76 |  | 
Cc1nc(NC(=O)c2ccccc2O)sc1Br |  |  | 15 | > 10 | > 10 |  |  |  |  |  |  |  | 
O=C(Nc1nc(-c2ccccc2)cs1)c1ccccc1O |  | 29 | 14 | > 3.5 | ≥ 10 |  | > 10 | > 10 |  |  | 7.4 |  | 
O=C(Nc1cc(C(F)(F)F)cc(C(F)(F)F)c1)c1ccccc1O |  |  | 3.7 | 3.5 | 8.1 |  |  |  | soluble |  | 1.1 |  | 
N#Cc1cnc(NC(=O)c2ccccc2O)s1 |  | 11 | 15 | > 10 | > 10 |  | > 10 | > 10 |  |  | 4.1 |  | 
O=C(Nc1ccc([N+](=O)[O-])cc1Cl)c1cc(Cl)ccc1O [NICLOSAMIDE] |  |  | 10 | 0.16 | 0.7 |  |  |  | soluble |  | 16.2 |  | 
CC(=O)Oc1ccccc1C(=O)Nc1ccc(Br)cc1 |  |  | 0.6 | 0.45 | 3.4 |  |  |  |  |  | 1.3 |  | 
CC(=O)Oc1c(C)cccc1C(=O)Nc1ncc(Cl)s1 |  | 14 | 12 | 0.59 | 8.9 |  | 1 | 3.8 |  | 14 | 11 |  | 

SMILES | Drug metabolism (Canis familiaris [1]) | CC50 at 72 h [2] [µM] | CC50 at 72 h [3] [µM] | EC50 (Hepatitis C virus [4]) [µM] | EC90 (Hepatitis C virus [4]) [µM] | Drug metabolism (Canis familiaris [5]) | EC50 (Hepatitis C virus [6]) [µM] | EC90 (Hepatitis C virus [6]) [µM] | solubility [7] | Ratio CC50/EC50 [8] | Ratio CC50/EC50 [9] | MTD [10] [mg/kg] | Activity (Rattus norvegicus)
Cc1ccc(C(=O)Nc2ncc(Cl)s2)c(O)c1 |  |  | 30 | > 10 | > 10 |  |  |  |  |  |  |  | 
O=C(Nc1ccccc1Cl)c1ccccc1O |  |  | 72 | 3.8 | 21 |  |  |  |  |  | 19 |  | 
O=C(Nc1cccc(F)c1)c1ccccc1O |  |  | 3.4 | 0.13 | 0.83 |  |  |  |  |  | 26 |  | 
O=C(Nc1ncc(F)s1)c1ccccc1O |  | 2.9 | 24 | > 10 | > 10 |  | > 10 | > 10 |  |  |  |  | 
CS(=O)(=O)c1csc(NC(=O)c2ccccc2O)n1 |  |  | 85 | 0.5 | 1.7 |  |  |  |  |  | 170 |  | 
CC(=O)Nc1cnc(NC(=O)c2ccccc2O)s1 |  |  | 11 | > 10 | > 10 |  |  |  |  |  |  |  | 
CC(=O)Oc1ccccc1C(=O)Nc1ncc(Br)s1 |  | 21 | 12 | 3.8 | 11 |  | 3.3 | 10 |  | 6 | 3 |  | 
CS(=O)(=O)c1cnc([N-]C(=O)c2ccccc2O)s1.[Na+] |  |  | 43 | 1.5 | 5.2 |  |  |  |  |  | 29 |  | 
Cc1cccc(C(=O)Nc2ncc(Br)s2)c1O |  | 25 | 15 | > 1.9 | > 10 |  | > 10 | > 10 |  |  | 11 | < 25 | Toxic
CC(=O)Oc1ccccc1C(=O)Nc1ncc(C(F)(F)F)s1 |  | 14 | 1.7 | > 4.3 | > 8.2 |  | > 10 | > 10 | soluble |  | 0.9 |  | 
CC(=O)Oc1ccccc1C(=O)Nc1cccc(F)c1 |  |  | > 100 | 3.8 | 11 |  |  |  |  |  | 26 |  | 
CS(=O)(=O)c1ccc(NC(=O)c2ccccc2O)cc1 |  |  | > 100 | > 10 | > 10 |  |  |  |  |  |  |  | 
C[S+]([O-])c1csc(NC(=O)c2ccccc2O)n1 (stereo unspecified) |  |  | 63 | 2 | 4.6 |  |  |  |  |  | 32 |  | 
O=C(Nc1cc(C(F)(F)F)ccc1Cl)c1ccccc1O |  |  | 0.33 | 0.01 | 0.03 |  |  |  |  |  | 65.2 |  | 
O=C(Nc1ncc([N+](=O)[O-])s1)c1cc(Cl)ccc1O |  |  | > 100 | 2 | 5.9 |  |  |  |  |  | >50 |  | 
O=C(Nc1nc(-c2ccccc2)c(Br)s1)c1ccccc1O |  | 62 | 16 | > 2.2 | > 7 |  | > 10 | > 10 |  |  | 7.3 |  | 
O=C(Nc1ncc(Cl)s1)c1ccccc1O |  |  | 15 | 10 | 10 |  |  |  |  |  |  |  | 
